The values below are quoted from earlier work in patent publication US20190224118A1, “ORAL GASTRORETENTIVE FORMULATIONS AND USES THEREOF” (INTEC PHARMA LTD., priority 2016, published 2019).

For the compound `C=C(C)[C@@H]1CCC(C)=C[C@H]1c1c(O)cc(CCCCC)cc1O` [CBD, cannabidiol], the “number of metabolites identified in urine” value (urine) is recorded as “more than 33”.
Take `CCCCCc1cc(O)c2c(c1)OC(C)(C)[C@@H]1CCC(C)=C[C@@H]21` [Δ9-THC, Δ-9-tetrahydrocannabinol]: the “plasma levels of active 11-hydroxy metabolite, oral administration versus smoking” value (oral versus smoking) is recorded as “about three”.
